According to BindingDB's records for doi:10.1021/np400148e (University of Eastern Piedmont, 2013):

Target: Integrase (Human immunodeficiency virus 1, UniProt Q76353)
Assay: Inhibition of HIV-1 integrase

IC50: 40 µM
Compound: COc1cc(C=CC(=O)CC(=O)C=Cc2ccc(O)c(OC)c2)ccc1O
